Measured values as given in publication PMC9555310, “Novel inhibitors and activity-based probes targeting serine proteases” (Frontiers in Chemistry, 2022).

Assays:
chymotrypsin = biological target: T1, chymotrypsin (Bos taurus, UniProt P00766); assay: Off-target study, residual activity after 2 min pre-incubation: chymotrypsin; type: biochemical, bovine; details: 2 min incubation, PBS pH 7.4, 37°C; for off-target inhibition of chymotrypsin: residual activity vs DMF control, NAP830 at concentrations up to 50 μM
T1 construct: purchased Sigma-Aldrich (supplement); Calbiochem; host or cells: bovine pancreas
Experimental: (§1) FIGURE 5 Results of “off-target“ studies. NAP849 (A), NAP800 (B) and NAP830 (C) were tested against trypsin, chymotrypsin, and NE. Samples (approx. 0.01 μg) of each protease were incubated with the indicated concentrations of test compound for 2 min, in PBS, pH 7.4, at 37°C. (D) NAP858, NAP962 and NAP849 were tested against cathepsin B at the indicated concentrations in 0.1 M MES, pH 6.1, containing 1 mM EDTA, for 2 min, at 37°C. Aliquots (approx. 10 μL) of each incubation sample were then added to a fresh sample (990 μL) of PBS for the serine proteases and MES for cathepsin B, containing the appropriate substrate for each protease, to measure their residual activity. Controls incubations were performed in the absence of test compound, but in the presence of an appropriate volume of DMF vehicle used to prepare stock solutions of each inhibitor under study.
(§2) Two elements were investigated regarding possible “off-target” effects–determining the extent of cross-reactivity of each of the new putative ABPs between the various serine protease family members and assessing their collateral inhibitory action against another mechanistic class–the cysteine proteases, using cathepsin B (CTSB) as an exemplar.
(§3) For assays requiring a pre-incubation step enzyme and inhibitor in assay buffer were incubated together, at 37 °C, for 2 min, with gentle agitation. The reaction mixture was then aliquoted (50 μL) in duplicate on a black 96-well microtitre plate followed by addition of substrate to make a final concentration of 50 μM in a total volume of 100 μL. The fluorescence production was then measured as described for the previous procedure.
(§4) Figure ST1. Results of “off-target” studies. NAP559 and NAP533 were tested against chymotrypsin, and NE. Samples (approx. 0.01 mg) of each protease were incubated with the indicated concentrations of test compound for 2 min, in PBS, pH 7.4, at 37 °C. Aliquots (approx. 10 µL) of each incubation sample were then added to a fresh sample (990 µL) of PBS containing the appropriate substrate for each protease, to measure their residual activity. Controls incubations were performed in the absence of test compound, but in the presence of an appropriate volume of DMF vehicle used to prepare stock solutions of each inhibitor under study.

neutrophil elastase (NE) = biological target: T2, neutrophil elastase (NE) (Homo sapiens, UniProt P08246); assay: Off-target study, residual activity after 2 min pre-incubation: NE; type: biochemical; details: 2 min incubation, PBS pH 7.4, 37°C; for off-target inhibition of neutrophil elastase: residual activity vs DMF control, NAP830 at concentrations up to 50 μM
T2 construct: purchased Calbiochem
T2 sequence (P08246 30-267): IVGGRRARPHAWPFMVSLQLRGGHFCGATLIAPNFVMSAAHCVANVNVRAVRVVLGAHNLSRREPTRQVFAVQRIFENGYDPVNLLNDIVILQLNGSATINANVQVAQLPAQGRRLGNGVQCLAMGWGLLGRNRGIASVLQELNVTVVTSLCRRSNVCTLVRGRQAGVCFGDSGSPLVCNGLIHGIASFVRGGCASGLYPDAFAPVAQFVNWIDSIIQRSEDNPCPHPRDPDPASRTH
Experimental: as §1, §2, §3, §4

plasmin = biological target: T3, plasmin (Homo sapiens, UniProt P00747); assay: Activity-based profiling of plasmin (SDS-PAGE, streptavidin-HRP western blot); type: binding; details: 50 μM, 30 min, 37°C
T3 construct: purchased Sigma-Aldrich (supplement); R&D Systems; host or cells: human plasma
Experimental: Samples of recombinant protease (trypsin, plasmin, thrombin, chymotrypsin, or HNE, as indicated in the relevant figure legends) were treated with each of the newly synthesized compounds at a concentration of 50 μM, for 30 min, at 37°C. A control sample (no ABP) was prepared by treating the recombinant protease with solvent vehicle (DMF) only, used to prepare the stock solution of each ABP. Samples were also pre-treated (±90°C for 30 min) before being incubated with each putative ABP. With trypsin and thrombin, further samples were prepared where Z-Arg^P-(OPh)2 or NAP559, respectively, was added 30 min prior to the addition of the ABP under examination. All treated samples were then denatured with SDS containing reducing treatment buffer (10 min at 95°C), followed by resolution by SDS-PAGE and subjected to Western blotting. Resolved proteins were then transferred onto the nitrocellulose membrane and labeled with streptavidin-HRP. The ABP–protease complex was then visualized following treatment with Luminata Forte HRP substrate.
FIGURE 8 Activity Based Profiling of Trypsin-like serine proteases. (A) trypsin was treated (±) with NAP830, for 30 min, at 37°C (± pretreatment with Z-Arg^P-(OPh)2). (B) thrombin (1 […]) was pre-treated with various concentrations of NAP559 (30 min, at 37°C) followed by treatment (±) with NAP858 for 30 min, at 37°C. (C) Plasmin was treated in turn with QUBTL1, NAP962 and NAP830, (± pre-heat inactivation at 95°C, for 10 min) for 30 min, at 37°C. […]
Following transfer, the extra protein binding sites on the membrane were blocked by addition of 3% (w/v) BSA in TBST (20 mM Tris, 137 mM NaCl, 1% (v/v) Tween 20, pH 7.6) and agitated gently at room temperature for 30 minutes. The biotin-labelled proteases were then detected by addition of Streptavidin-HRP (Vector Laboratories) in 3% (w/v) BSA in TBST at a concentration of 1:20000, for 1 hour at room temperature. […]

T3 sequence (P00747 581-810 limits assumed): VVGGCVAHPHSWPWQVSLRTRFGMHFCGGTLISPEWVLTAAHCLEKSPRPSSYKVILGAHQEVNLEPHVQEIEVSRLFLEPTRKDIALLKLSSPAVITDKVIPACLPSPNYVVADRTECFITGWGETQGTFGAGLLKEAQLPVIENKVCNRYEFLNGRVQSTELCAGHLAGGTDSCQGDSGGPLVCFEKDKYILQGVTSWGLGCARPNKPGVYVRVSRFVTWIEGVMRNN
T3 sequence (P00747 97-580 partner limits assumed): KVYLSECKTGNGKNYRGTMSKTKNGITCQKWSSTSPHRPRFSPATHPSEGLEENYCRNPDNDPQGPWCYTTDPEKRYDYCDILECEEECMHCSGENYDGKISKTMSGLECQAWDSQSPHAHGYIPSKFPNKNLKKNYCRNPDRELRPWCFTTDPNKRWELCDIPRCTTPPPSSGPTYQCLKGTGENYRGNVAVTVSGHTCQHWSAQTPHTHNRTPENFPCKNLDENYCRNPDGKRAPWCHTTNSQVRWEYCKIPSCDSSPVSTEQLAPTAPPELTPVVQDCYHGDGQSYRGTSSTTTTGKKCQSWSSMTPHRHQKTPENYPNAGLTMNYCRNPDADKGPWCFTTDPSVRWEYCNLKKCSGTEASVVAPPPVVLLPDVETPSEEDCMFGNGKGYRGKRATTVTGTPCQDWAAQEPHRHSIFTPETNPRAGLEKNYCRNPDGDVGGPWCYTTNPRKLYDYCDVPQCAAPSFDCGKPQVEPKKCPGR

In the case of `N=C(N)NCCCN(CC(=O)N1CCC[C@H]1C(=O)N(CC(N)=O)Cc1ccccc1)C(=O)ON1C(=O)CCC1=O` [NAP559, Succinimidoyl-CO-NArg-D-Pro-NPhe-NH2], the inhibition of chymotrypsin (chymotrypsin; highest concentration (50 μM)) is reported as < 5 % of control and the “inhibition of NE” value (neutrophil elastase (NE); highest concentration (50 μM)) is reported as < 5 % of control.
`CC(C)N(CC(=O)NCC(=O)NCC(=O)NCCCOCCOCCOCCCNC(=O)CCCCC1SCC2NC(=O)NC21)C(=O)ON1C(=O)CCC1=O` (stereo not drawn) [NAP800, Succinimidoyl-CO-NVal-Gly-Gly-PEG-Biotin] was tested, and the “off-target inhibition of chymotrypsin” value (chymotrypsin) was “no “off-target” or collateral inhibition”.
With `NCCCCN(CC(=O)NCC(=O)NCC(=O)NCCCOCCOCCOCCCNC(=O)CCCCC1SCC2NC(=O)NC21)C(=O)ON1C(=O)CCC1=O` (stereo not drawn) [NAP830, Succinimidoyl-CO-NLys-Gly-Gly-PEG-Biotin] the “off-target inhibition of chymotrypsin” value (chymotrypsin) was “no “off-target” effects”, the “off-target inhibition of neutrophil elastase” value (neutrophil elastase (NE)) was “no “off-target” effects” and the “labelling of plasmin by ABP (western blot)” value (plasmin) was “A band corresponding to the light (catalytic) chain of plasmin (26 kDa) was visible”.
`O=C(CCCCC1SCC2NC(=O)NC21)NCCCOCCOCCOCCCNC(=O)CNC(=O)CNC(=O)CN(Cc1ccccc1)C(=O)ON1C(=O)CCC1=O` (stereo not drawn) [NAP849, Succinimidoyl-CO-NPhe-Gly-Gly-PEG-Biotin] was tested, and the “off-target inhibition of neutrophil elastase” value (neutrophil elastase (NE)) was “complete absence of inhibition”.
With `CC(C)N(CC(=O)NCCCOCCOCCOCCCNC(=O)CCCCC1SCC2NC(=O)NC21)C(=O)CN(Cc1ccccc1)C(=O)CN(CCCCN)C(=O)ON1C(=O)CCC1=O` (centres unmarked) [NAP962, Succinimidoyl-CO-NLys-NPhe-NVal-PEG-Biotin] the “labelling of plasmin by ABP (western blot)” value (plasmin) was “A band corresponding to the light (catalytic) chain of plasmin (26 kDa) was visible”.
